Laboratory results reported in US20220202012A1, “SPROUT INHIBITOR FOR POTATO AND METHOD OF USE THEREOF” (UPL Limited, priority 2019, published 2022).
Values joined by “and” are separate entries in the source; they are usually repeats but may differ in a detail not shown here. Equal values may be shown once.

Legend:
storage potatoes = experiment: Field trial: sprout suppression in storage potatoes, composition applied on a conveyor belt; type: in vivo, Solanum tuberosum
Method: The efficacy of sprout inhibitor for sprout suppression in storage potatoes was evaluated by applying the composition of present invention on potatoes on a conveyor belt. The treatment application for trial is at crop storage majority treatment 1) Beginning of sprouting: sprouts visible (<1 mm) and, treatment 2) at end of dormancy (sprouts 2-3 mm). After completion of the test, the potatoes were evaluated on sprouting reduction efficiency. No phytotoxicity was observed.

[1] = system: potatoes of the variety Fontane and Innovator; experiment: Field trials in Belgium 2018/2019: anti-sprout spray treatment of stored potatoes; type: in vivo, Solanum tuberosum; set-up: Tuber sprate 126 da-a / Tuber sprate 182 da-a: scale not given here; Sprout weight after 55 DA / Sprout LENMAX after 55 DA / Sprout weight 55 DA / Sprout weight 116 DA / Sprout Lenmax 55 DA / Sprout Lenmax 116 DA / Sprout lenmax 126 DA-A / Sprout lenmax 182 DA-A / Sprout weight 126 DA / Sprout weight 182 DA: unit not given here; details: for Sprout LENMAX after 55 DA: Length maximal; for Sprout Lenmax 55 DA / Sprout weight 55 DA / Tuber sprout % 55 DA / Sprout Lenmax 116 DA / Sprout weight 116 DA / Tuber sprout % 116 DA: Table 4; for Sprout lenmax 126 DA-A / Sprout weight 126 DA / Tuber sprouted (%) 126 DA / Tuber sprate 126 da-a / Sprout lenmax 182 DA-A / Sprout weight 182 DA / Tuber sprouted % 182 DA / Tuber sprate 182 da-a: Table 5
Method: Field trials were conducted in Belgium, during 2018 and 2019, in the potato crop. The potatoes of the variety Fontane and Innovator was used for anti-sprout treatment (Variety for processing) came up directly from the field (Harvested on Oct. 5, 2018 and Sep. 19, 2018).
The trial was set up in randomized complete block with single control randomized in each block under commercial storage practice. Potatoes treated 3 days after lifting and skin maturity was good. For application of formulation (carrier: 200 ml water for one treatment) container with rack and spray stick was used.
The first application (A) was carried out Potatoes treated 3 days after lifting. The following applications were carried out at four weeks' interval for each treatment.
(A): right after harvest, before putting into storage.
Storage conditions: The trials are stored in shed at temperature 5-18° C. and all plots of a trial should be stored in the same place.

[2] = Treatment (1): Beginning of sprouting, rate 195 ml/1000 kg
[3] = Treatment (2): At end of dormancy, rate not given
[4] = Treatment (1): Beginning of sprouting, rate 300 ml/1000 kg
[5] = Treatment (1): Beginning of sprouting, rate 400 ml/1000 kg
[6] = Treatment (1): Beginning of sprouting, rate 60 ml/1000 kg

CCCCCCC=CC(C)=O [3-Decen-2-One]
Sprout No. (storage potatoes; [2]): 9.0
Sprouted (%) (storage potatoes; [2]): 24.75%
Sprout Number (storage potatoes; [3]): 32.7
Sprouted (%) (storage potatoes; [3]): 100.0%

C=C(C)C1CC=C(C)C(=O)C1 (stereo not drawn) [Carvone]
Sprout No. (storage potatoes; [4]): 12.3
Sprouted (%) (storage potatoes; [4]): 32.02%
Sprout Number (storage potatoes; [3]): 34.0
Sprouted (%) (storage potatoes; [3]): 96.02%

COCc1cnc(C2=NC(C)(C(C)C)C(=O)N2)c(C(=O)O)c1 (stereo not drawn) [Imazamox, 5-(methoxymethyl)-2-(4-methyl-5-oxo-4-propan-2-yl-1H-imidazol-2-yl)pyridine-3-carboxylic acid]
Sprout weight after 55 DA ([1]; rate 12 g ai/1000 kg): 6.89
Tuber SPROUTED (%) after 55 DA ([1]; rate 12 g ai/1000 kg): 78.67%
Sprout weight after 55 DA ([1]; rate 18 g ai/1000 kg): 4.09
Tuber SPROUTED (%) after 55 DA ([1]; rate 18 g ai/1000 kg): 73.21%
Sprout weight after 55 DA ([1]; rate 24 g ai/1000 kg): 4.2
Tuber SPROUTED (%) after 55 DA ([1]; rate 24 g ai/1000 kg): 75.26%
Sprout weight after 55 DA ([1]; rate 30 g ai/1000 kg): 4.13
Tuber SPROUTED (%) after 55 DA ([1]; rate 30 g ai/1000 kg): 71.68%
Sprout LENMAX after 55 DA ([1]; rate 12 g ai/1000 kg): 1.5
Sprout LENMAX after 55 DA ([1]; rate 18 g ai/1000 kg): 1.7
Sprout LENMAX after 55 DA ([1]; rate 24 g ai/1000 kg): 1.2
Sprout LENMAX after 55 DA ([1]; rate 30 g ai/1000 kg): 1.7
Sprout Lenmax 55 DA ([1]; rate 100 ml/1000 kg): 1.5
Sprout weight 55 DA ([1]; rate 100 ml/1000 kg): 6.89
Tuber sprout % 55 DA ([1]; rate 100 ml/1000 kg): 78.67%
Sprout Lenmax 55 DA ([1]; rate 150 ml/1000 kg): 1.7
Sprout weight 55 DA ([1]; rate 150 ml/1000 kg): 4.09
Tuber sprout % 55 DA ([1]; rate 150 ml/1000 kg): 73.21%
Sprout Lenmax 55 DA ([1]; rate 200 ml/1000 kg): 1.2
Sprout weight 55 DA ([1]; rate 200 ml/1000 kg): 4.2
Tuber sprout % 55 DA ([1]; rate 200 ml/1000 kg): 75.26%
Sprout Lenmax 55 DA ([1]; rate 250 ml/1000 kg): 1.7
Sprout weight 55 DA ([1]; rate 250 ml/1000 kg): 4.13
Tuber sprout % 55 DA ([1]; rate 250 ml/1000 kg): 71.68%
Sprout Lenmax 116 DA ([1]; rate 100 ml/1000 kg): 3.3
Sprout weight 116 DA ([1]; rate 100 ml/1000 kg): 12.31
Tuber sprout % 116 DA ([1]; rate 100 ml/1000 kg): 85.86%
Sprout Lenmax 116 DA ([1]; rate 150 ml/1000 kg): 2.8
Sprout weight 116 DA ([1]; rate 150 ml/1000 kg): 7.92
Tuber sprout % 116 DA ([1]; rate 150 ml/1000 kg): 79.15%
Sprout Lenmax 116 DA ([1]; rate 200 ml/1000 kg): 2
Sprout weight 116 DA ([1]; rate 200 ml/1000 kg): 7.07
Tuber sprout % 116 DA ([1]; rate 200 ml/1000 kg): 81.59%
Sprout Lenmax 116 DA ([1]; rate 250 ml/1000 kg): 1.3
Sprout weight 116 DA ([1]; rate 250 ml/1000 kg): 4.92
Tuber sprout % 116 DA ([1]; rate 250 ml/1000 kg): 71.93%
Sprout lenmax 126 DA-A ([1]; rate 50 ml/1000 kg): 3.7
Sprout lenmax 126 DA-A ([1]; rate 100 ml/1000 kg): 2.8 and 5.2
Sprout lenmax 126 DA-A ([1]; rate 150 ml/1000 kg): 1.7
Sprout lenmax 126 DA-A ([1]; rate 200 ml/1000 kg): 2.2 and 2.1
Sprout lenmax 126 DA-A ([1]; rate 250 ml/1000 kg): 0.9
Sprout weight 126 DA ([1]; rate 50 ml/1000 kg): 6.54
Tuber sprouted (%) 126 DA ([1]; rate 50 ml/1000 kg): 88.47%
Sprout weight 126 DA ([1]; rate 150 ml/1000 kg): 2.23 and 1.83
Tuber sprouted (%) 126 DA ([1]; rate 150 ml/1000 kg): 81.43% and 72.58%
Sprout weight 126 DA ([1]; rate 200 ml/1000 kg): 1.93 and 1.75
Tuber sprouted (%) 126 DA ([1]; rate 200 ml/1000 kg): 73.58% and 75.44%
Sprout weight 126 DA ([1]; rate 250 ml/1000 kg): 1.65
Tuber sprouted (%) 126 DA ([1]; rate 250 ml/1000 kg): 75.06%
Tuber sprate 126 da-a ([1]; rate 50 ml/1000 kg): 8.83
Tuber sprate 126 da-a ([1]; rate 100 ml/1000 kg): 9.5 and 8.83
Tuber sprate 126 da-a ([1]; rate 150 ml/1000 kg): 9.5 and 9.58
Tuber sprate 126 da-a ([1]; rate 200 ml/1000 kg): 9.67 and 9.75
Tuber sprate 126 da-a ([1]; rate 250 ml/1000 kg): 9.75
Sprout lenmax 182 DA-A ([1]; rate 50 ml/1000 kg): 4.2
Sprout lenmax 182 DA-A ([1]; rate 150 ml/1000 kg): 1 and 0.7
Sprout lenmax 182 DA-A ([1]; rate 200 ml/1000 kg): 1.7 and 1
Sprout lenmax 182 DA-A ([1]; rate 250 ml/1000 kg): 1.2
Sprout weight 182 DA ([1]; rate 50 ml/1000 kg): 23
Tuber sprouted % 182 DA ([1]; rate 50 ml/1000 kg): 88.1%
Tuber sprouted % 182 DA ([1]; rate 100 ml/1000 kg): 83.33% and 86.19%
Sprout weight 182 DA ([1]; rate 150 ml/1000 kg): 3.77 and 3.13
Tuber sprouted % 182 DA ([1]; rate 150 ml/1000 kg): 73.1% and 75.45%
Sprout weight 182 DA ([1]; rate 200 ml/1000 kg): 5.77 and 3.3
Tuber sprouted % 182 DA ([1]; rate 200 ml/1000 kg): 77.93% and 65.99%
Sprout weight 182 DA ([1]; rate 250 ml/1000 kg): 3.53
Tuber sprouted % 182 DA ([1]; rate 250 ml/1000 kg): 74.98%
Tuber sprate 182 da-a ([1]; rate 50 ml/1000 kg): 8.67
Tuber sprate 182 da-a ([1]; rate 100 ml/1000 kg): 9.67 and 8.83
Tuber sprate 182 da-a ([1]; rate 150 ml/1000 kg): 9.75
Tuber sprate 182 da-a ([1]; rate 200 ml/1000 kg): 9.58 and 9.67
Tuber sprate 182 da-a ([1]; rate 250 ml/1000 kg): 9.67
sprout control over time (in words) ([1]; as compared to other treatments such as maleic hydrazide, CIPC): effective sprout control over an extended period of time
inhibition of sprouts (in words) ([1]; comment on Table 3): effective for inhibition of sprouts
sprout weight (in words) ([1]; comment on Table 3, as compared to maleic hydrazide): an advantage was found
tubers germinated ([1]; comment on Table 5, dose rate 250 ml/1000 kg): 74%
Sprout No. (storage potatoes; [5]): 9.7
Sprouted (%) (storage potatoes; [5]): 24.77%
Sprout Number (storage potatoes; [3]): 16.7
Sprouted (%) (storage potatoes; [3]): 42.54%

Cc1ccc(C)c2ccccc12 [1,4-Dimethylnaphthalene]
Sprout No. (storage potatoes; [6]): 15.7
Sprouted (%) (storage potatoes; [6]): 42.80%
Sprout Number (storage potatoes; [3]): 34.3
Sprouted (%) (storage potatoes; [3]): 94.59%

O=C(O)COc1ccc(Cl)cc1Cl [2,4-D]
Sprout No. (storage potatoes; [5]): 12.3
Sprouted (%) (storage potatoes; [5]): 31.14%
Sprout Number (storage potatoes; [3]): 38.7
Sprouted (%) (storage potatoes; [3]): 99.21%
